# Measurements published in patent US20230002387A1, “2-AMINO-S6-SUBSTITUTED THIOPURINE COMPOUNDS AS INHIBITORS OF THE ENPP1 PROTEIN” (ATEN PORUS LIFESCIENCES PVT. LTD., priority 2019, published 2023).
# pKi: −log10 of the molar value.
# Biological target: T1, ENPP1 (Homo sapiens, UniProt P22413)
# T1 sequence (P22413 1-925): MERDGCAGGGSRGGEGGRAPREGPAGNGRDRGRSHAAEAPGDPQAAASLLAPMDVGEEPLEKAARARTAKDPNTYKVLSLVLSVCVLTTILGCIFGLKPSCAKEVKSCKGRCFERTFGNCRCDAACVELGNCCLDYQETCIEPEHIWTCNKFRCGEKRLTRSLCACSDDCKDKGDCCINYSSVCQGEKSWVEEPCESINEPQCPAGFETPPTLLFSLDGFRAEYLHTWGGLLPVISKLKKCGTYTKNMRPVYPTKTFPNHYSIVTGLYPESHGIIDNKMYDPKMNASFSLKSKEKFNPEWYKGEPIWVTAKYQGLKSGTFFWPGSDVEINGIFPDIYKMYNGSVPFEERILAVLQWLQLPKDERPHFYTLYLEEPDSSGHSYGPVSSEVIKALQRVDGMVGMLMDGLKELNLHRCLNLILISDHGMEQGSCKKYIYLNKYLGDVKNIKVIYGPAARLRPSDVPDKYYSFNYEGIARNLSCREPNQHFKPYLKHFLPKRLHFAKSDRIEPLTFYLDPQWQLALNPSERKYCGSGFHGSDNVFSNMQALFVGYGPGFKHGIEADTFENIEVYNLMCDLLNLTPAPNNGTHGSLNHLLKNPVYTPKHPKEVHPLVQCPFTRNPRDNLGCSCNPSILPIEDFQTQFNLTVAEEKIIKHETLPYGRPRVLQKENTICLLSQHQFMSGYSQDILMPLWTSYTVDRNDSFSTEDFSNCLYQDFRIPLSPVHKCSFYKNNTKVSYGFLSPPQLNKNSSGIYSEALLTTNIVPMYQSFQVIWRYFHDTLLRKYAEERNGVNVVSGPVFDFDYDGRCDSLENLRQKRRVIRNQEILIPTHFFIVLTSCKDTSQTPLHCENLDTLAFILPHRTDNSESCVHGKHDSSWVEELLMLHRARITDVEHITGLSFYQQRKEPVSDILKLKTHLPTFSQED
# Assay: Capillary electrophoresis-based NPP assay with ATP as a substrate (ENPP1 inhibition, Ki)
# Assay type: biochemical
# Conditions: Ki from IC50 by Cheng-Prusoff, 400 μM ATP
# Description: Here, a Capillary Electrophoresis based method was used to determine the IC50 values for ENPP1 Inhibitors for ENNP1 protein.
# The inhibitors synthesized were assessed for ENPP1 inhibitory potency against the natural substrate ATP. The enzyme inhibition assays were performed in 10 mM 2-(N-cyclohexylamino)-ethanesulfonic acid (CHES) buffer (pH 10.0) including 1 mM MgCl2, 2 mM CaCl2), and 400 μM of ATP, with different inhibitor concentrations. The reaction mixture was incubated with 20 ng human NPP1 at 37° C. for 30 min in a final volume of 100 μL, and the reactions were stopped by heating at 90° C. for 3 min. Finally, the reaction mixtures were directly measured by capillary electrophoresis (CE). The CE instrumentation and operating conditions were as follows: P/ACE MDQ capillary electrophoresis system (Beckman Instruments, Fullerton, Calif., USA) with a DAD detection system, polyacrylamide-coated capillaries of 40 cm effective length×[…] (id) obtained from CS Chromatographie GmbH (Langerwehe, Germany), 50 mM phosphate buffer (pH 6.5) as running buffer, electrokinetic injection (−6 kV, 60 s), separation voltage of −15 kV. The amounts of AMP produced were measured at 260 nm. Data collection and peak area analysis were performed by 32 Karat software obtained from Beckman Coulter (Fullerton, Calif., USA).
# The IC50 values of test compounds were calculated by plotting data in the program Prism 5.0, and the Ki values were calculated from the IC50 values with the Cheng-Prusoff equation (Tables 2-4).
Structure (SMILES),pKi (bin of Table 2),pKi (bin of Table 4)
COc1nc(NC(=O)[C@H](Sc2nc(N)nc3nc[nH]c23)C(C)C)ncc1Br [Compound 514],≥ 7.00,
COc1cc(NC(=O)[C@@H](Sc2nc(N)nc3nc[nH]c23)C(C)C)ccc1O [Compound 270],≥ 7.00,
COc1ccc(NC(=O)CSc2nc(N)nc3nc[nH]c23)cc1C(=O)O [Compound 144],,≤ 6.00
CCOc1nc(NC(=O)[C@@H](Sc2nc(N)nc3nc[nH]c23)C(C)C)ncc1F [Compound 679],≥ 7.00,
Nc1nc(SCC(=O)Nc2ccc3c(c2)OC(F)(F)O3)c2[nH]cnc2n1 [Compound 90],,≤ 6.00
CC(=O)c1cc(NC(=O)CSc2nc(N)nc3nc[nH]c23)ccc1O [Compound 199],≥ 7.00,
CC[C@H](Sc1nc(N)nc2nc[nH]c12)C(=O)Nc1nccc(OC)n1 [Compound 435],≥ 7.00,
Nc1nc(SCC(=O)Nc2ccc3ncccc3c2)c2[nH]cnc2n1 [Compound 184],≥ 7.00,
CC[C@H](Sc1nc(N)nc2nc[nH]c12)C(=O)Nc1ncc(Cl)c(OC)n1 [Compound 609],≥ 7.00,
COc1ccc(NC(=O)Cn2nnc3ncccc32)cc1OC [Compound 35],,≤ 6.00
CCOc1nc(NC(=O)[C@H](CC)Sc2nc(N)nc3nc[nH]c23)ncc1Cl [Compound 677],≥ 7.00,
COc1nc(NC(=O)[C@H](Cc2ccccc2)Sc2nc(N)nc3nc[nH]c23)ncc1Br [Compound 555],≥ 7.00,
COc1nc(NC(=O)[C@H](Cc2ccccc2)Sc2nc(N)nc3nc[nH]c23)ncc1Cl [Compound 554],≥ 7.00,
CC(C)[C@H](Sc1nc(N)nc2nc[nH]c12)C(=O)Nc1ccc(O)c(C(=O)O)c1 [Compound 269],≥ 7.00,
Nc1nc(S[C@@H](CCc2ccccc2)C(=O)Nc2ccc(O)c(C(=O)O)c2)c2[nH]cnc2n1 [Compound 485],≥ 7.00,
COc1ccc(NC(=O)CSc2nc(N)nc3nc[nH]c23)cc1Cl [Compound 128],≥ 7.00,
CCC(Sc1nc(N)nc2nc[nH]c12)C(=O)Nc1ccc(O)c(C(=O)O)c1 (stereo not shown) [Compound 249],≥ 7.00,
COc1nc(NC(=O)[C@@H](Cc2ccccc2)Sc2nc(N)nc3nc[nH]c23)ncc1Cl [Compound 551],≥ 7.00,
"COc1ccc(NC(=O)CSc2nc(N)nc3nc[nH]c23)cc1OC [Compound 46, 2-((2-amino-7H-purin-6-yl)thio)-N-(3,4-dimethoxyphenyl)acetamide]",≥ 7.00,
COc1ccnc(NC(=O)[C@@H](CCc2ccccc2)Sc2nc(N)nc3nc[nH]c23)n1 [Compound 507],≥ 7.00,
Nc1nc(SCC(=O)NCc2ccccc2)c2[nH]cnc2n1 [Compound 103],,≤ 6.00
CC[C@H](Sc1nc(N)nc2nc[nH]c12)C(=O)Nc1ncc(Br)c(OC)n1 [Compound 509],≥ 7.00,

Structure (SMILES),pKi (bin of Table 2),pKi (bin of Table 4)
COc1cc2ncc(SCC(=O)Nc3cc(S(N)(=O)=O)ccc3C)nc2cc1OC [Compound 36],,≤ 6.00
CC[C@@H](Sc1nc(N)nc2nc[nH]c12)C(=O)Nc1ncc(Cl)c(OC)n1 [Compound 608],≥ 7.00,
COc1ccc(NC(=O)CSc2nc3ccncc3o2)cc1OC [Compound 22],,≤ 6.00
COc1ccc(NC(=O)Cn2cnc3ncnc(N)c32)cc1OC [Compound 18],,≤ 6.00
CC[C@H](Sc1nc(N)nc2nc[nH]c12)C(=O)Nc1ccc(O)c(C(=O)O)c1 [Compound 267],≥ 7.00,
COc1ccnc(NC(=O)[C@H](Sc2nc(N)nc3nc[nH]c23)C(C)C)n1 [Compound 511],≥ 7.00,
Nc1nc(SCC(=O)Nc2ccc(Cl)c(O)c2)c2[nH]cnc2n1 [Compound 207],≥ 7.00,
COc1ccc(CNC(=O)CSc2nc(N)nc3nc[nH]c23)cc1OC [Compound 105],,≤ 6.00
COc1ccc(NC(=O)CSc2nc(N)nc3nc[nH]c23)cc1 [Compound 107],,≤ 6.00
COc1ccc(NC(=O)[C@@H](C)Sc2nc(N)nc3nc[nH]c23)nc1OC [Compound 490],≥ 7.00,
COc1ccnc(NC(=O)CSc2nc(N)nc3nc[nH]c23)c1 [Compound 109],≥ 7.00,
COc1ccc(NC(=O)CSc2nc(N)nc3nc[nH]c23)nc1OC [Compound 160],≥ 7.00,
COc1nc(NC(=O)C2(Sc3nc(N)nc4nc[nH]c34)CCC2)ncc1Br [Compound 558],≥ 7.00,
COc1ccc(NC(=O)Cn2cnc3cnccc32)cc1OC [Compound 11],,≤ 6.00
COc1ccc(NC(=O)[C@H](C)Sc2nc(N)nc3nc[nH]c23)nc1OC [Compound 491],≥ 7.00,
Cc1nc2cc(NC(=O)CSc3nc(N)nc4nc[nH]c34)ccc2s1 [Compound 182],≥ 7.00,
CC(C)(Sc1nc(N)nc2nc[nH]c12)C(=O)Nc1ccc(O)c(C(=O)O)c1 [Compound 251],,≤ 6.00
COc1cc(NC(=O)[C@H](CC(C)C)Sc2nc(N)nc3nc[nH]c23)ccc1O [Compound 272],≥ 7.00,
COc1nc(NC(=O)C(C)(C)Sc2nc(N)nc3nc[nH]c23)ncc1F [Compound 529],≥ 7.00,
COc1ccc(NC(=O)CSc2ncnc3[nH]cnc23)cc1OC [Compound 45],,≤ 6.00
COc1ccnc(NC(=O)[C@@H](Cc2ccccc2)Sc2nc(N)nc3nc[nH]c23)n1 [Compound 516],≥ 7.00,
CC[C@@H](Sc1nc(N)nc2nc[nH]c12)C(=O)Nc1cc(OC)ccn1 [Compound 471],≥ 7.00,

Structure (SMILES),pKi (bin of Table 2),pKi (bin of Table 4)
COc1ccc(NC(=S)CSc2nc(N)nc3nc[nH]c23)cc1OC [Compound 355],≥ 7.00,
COc1ccnc(NC(=O)C(C)(C)Sc2nc(N)nc3nc[nH]c23)n1 [Compound 504],≥ 7.00,
COc1cc2ncc(Nc3cc(S(N)(=O)=O)ccc3C)nc2cc1OC [Compound 8],,≤ 6.00
Nc1nc(SCC(=S)Nc2ccc(O)c(C(=O)O)c2)c2[nH]cnc2n1 [Compound 408],≥ 7.00,
CC[C@H](Sc1nc(N)nc2nc[nH]c12)C(=O)Nc1ccc(OC)c(OC)n1 [Compound 472],≥ 7.00,
Nc1nc(SCC(=O)Nc2ccc3c(c2)OCO3)c2[nH]cnc2n1 [Compound 78],≥ 7.00,
COc1nc(NC(=O)[C@@H](Sc2nc(N)nc3nc[nH]c23)C(C)C)ncc1Br [Compound 515],≥ 7.00,
CCOc1nc(NC(=O)[C@H](CC)Sc2nc(N)nc3nc[nH]c23)ncc1Br [Compound 678],≥ 7.00,
CC[C@@H](Sc1nc(N)nc2nc[nH]c12)C(=O)Nc1nc(Cl)cc(OC)n1 [Compound 496],≥ 7.00,
COc1ccnc(NC(=O)[C@H](CCc2ccccc2)Sc2nc(N)nc3nc[nH]c23)n1 [Compound 506],≥ 7.00,
COc1ccnc(NC(=O)CSc2nc(N)nc3nc[nH]c23)n1 [Compound 201],≥ 7.00,
COc1nc(NC(=O)[C@@H](Cc2ccccc2)Sc2nc(N)nc3nc[nH]c23)ncc1Br [Compound 552],≥ 7.00,
CC(C)Oc1ccnc(NC(=O)C(C)(C)Sc2nc(N)nc3nc[nH]c23)n1 [Compound 534],≥ 7.00,
"COc1ccc(C(=O)NCCSc2nc(N)nc3nc[nH]c23)cc1OC [Compound 148, N-(2-((2-amino-7H-purin-6-yl)thio)ethyl)-3,4-dimethoxybenzamide]",≥ 7.00,
COc1cc(NC(=O)[C@H](Sc2nc(N)nc3nc[nH]c23)c2ccccc2)ccc1O [Compound 329],≥ 7.00,
Cc1ccc(S(N)(=O)=O)cc1NC(=O)Cn1cnc2ncnc(N)c21 [Compound 30],,≤ 6.00
CCOc1nc(NC(=O)[C@H](CC)Sc2nc(N)nc3nc[nH]c23)ncc1F [Compound 673],≥ 7.00,
CC[C@@H](Sc1nc(N)nc2nc[nH]c12)C(=O)Nc1nccc(OC)n1 [Compound 389],≥ 7.00,
COc1ccnc(NC(=O)[C@@H](Sc2nc(N)nc3nc[nH]c23)C(C)C)n1 [Compound 510],≥ 7.00,
COc1ccnc(NC(=O)[C@@H](C)Sc2nc(N)nc3nc[nH]c23)n1 [Compound 486],≥ 7.00,
